Assay results published in ChEMBL document CHEMBL1629478, “Novel alkyl- and arylcarbamate derivatives with N-benzylpiperidine and N-benzylpiperazine moieties as cholinesterases inhibitors” (Eur J Med Chem, 2010).
The source made the active and inactive calls. The calls are words filed in the database; no cut-off is given here.

What was measured:
[1] = target: Cholinesterase (Equus caballus) (UniProt P81908); test: Inhibition of horse serum BChE at 100 uM preincubated for 5 mins by Ellman's method
Cholinesterase = Cholinesterase (Equus caballus, UniProt P81908)
Description: Inhibition of horse serum BChE preincubated for 5 mins by Ellman's method

[2] = target: Acetylcholinesterase (Electrophorus electricus) (UniProt O42275); test: Inhibition of electric eel AChE at 100 uM preincubated for 5 mins by Ellman's method
[3] = target: Acetylcholinesterase (Electrophorus electricus) (UniProt O42275); test: Non-competitive inhibition of electric eel AChE by Lineweaver-Burk plot analysis
[4] = target: Cholinesterase (Equus caballus) (UniProt P81908); test: Mixed-type inhibition of horse serum BChE by Lineweaver-Burk plot analysis

Chain of Cholinesterase (P81908 whole entry): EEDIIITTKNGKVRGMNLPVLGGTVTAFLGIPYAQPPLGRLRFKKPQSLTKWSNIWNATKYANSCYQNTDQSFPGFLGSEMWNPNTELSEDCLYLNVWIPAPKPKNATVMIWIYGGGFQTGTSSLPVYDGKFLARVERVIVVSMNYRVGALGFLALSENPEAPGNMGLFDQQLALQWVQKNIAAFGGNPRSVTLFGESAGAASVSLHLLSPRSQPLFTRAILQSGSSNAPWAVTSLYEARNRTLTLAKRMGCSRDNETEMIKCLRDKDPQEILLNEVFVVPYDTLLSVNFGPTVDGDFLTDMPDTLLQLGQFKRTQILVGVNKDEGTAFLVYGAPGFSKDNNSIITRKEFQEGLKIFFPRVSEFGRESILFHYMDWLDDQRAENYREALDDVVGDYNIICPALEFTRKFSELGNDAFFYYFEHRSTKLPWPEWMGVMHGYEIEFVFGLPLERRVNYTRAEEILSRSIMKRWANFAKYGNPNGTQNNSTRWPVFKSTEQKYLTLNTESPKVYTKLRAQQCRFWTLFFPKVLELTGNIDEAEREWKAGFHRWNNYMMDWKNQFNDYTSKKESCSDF
Chain of Cholinesterase (Equus caballus) (P81908 whole entry): as above
Chain of Acetylcholinesterase (Electrophorus electricus) (O42275 24-633 limits assumed): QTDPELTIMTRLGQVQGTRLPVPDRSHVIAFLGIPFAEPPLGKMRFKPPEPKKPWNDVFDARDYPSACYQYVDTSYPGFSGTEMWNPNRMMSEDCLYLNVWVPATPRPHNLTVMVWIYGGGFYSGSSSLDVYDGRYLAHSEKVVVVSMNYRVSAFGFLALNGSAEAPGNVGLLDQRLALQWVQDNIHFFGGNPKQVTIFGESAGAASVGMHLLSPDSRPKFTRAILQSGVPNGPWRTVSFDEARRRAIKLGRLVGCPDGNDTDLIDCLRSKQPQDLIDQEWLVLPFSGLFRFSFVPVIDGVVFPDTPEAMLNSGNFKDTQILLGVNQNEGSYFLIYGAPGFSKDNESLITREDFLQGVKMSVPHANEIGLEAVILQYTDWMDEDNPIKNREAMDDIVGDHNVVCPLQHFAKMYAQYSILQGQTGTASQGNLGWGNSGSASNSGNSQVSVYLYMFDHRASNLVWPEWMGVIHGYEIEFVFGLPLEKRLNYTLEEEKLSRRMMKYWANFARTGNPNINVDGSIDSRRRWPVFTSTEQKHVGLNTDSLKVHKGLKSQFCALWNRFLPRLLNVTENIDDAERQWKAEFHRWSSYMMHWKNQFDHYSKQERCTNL

SMILES	inhibition [1] [%]	IC50 (Cholinesterase) [µM]	inhibition [2]	inhibition [3]	inhibition [4]
CCNC(=O)Oc1ccc(CC(=O)N2CCN(Cc3ccccc3)CC2)cc1	83.4	43.7	inactive		
CCNC(=O)Oc1ccc(CC(=O)NC2CCN(Cc3ccccc3)CC2)cc1	90.4	10.7	23.4%		
Cc1ccccc1NC(=O)Oc1ccc(CC(=O)NC2CCN(Cc3ccccc3)CC2)cc1	46.9		24.7%		
CCCCNC(=O)Oc1ccc(CC(=O)NC2CCN(Cc3ccccc3)CC2)cc1	63.4	11.7	43.7%		
O=C(Cc1ccc(O)cc1)NC1CCN(Cc2ccccc2)CC1	45.6		15.2%		
CC(C)NC(=O)Oc1cccc(CC(=O)NC2CCN(Cc3ccccc3)CC2)c1	72.2	29.5	34.9%		
CN(C)C(=O)Oc1ccc(CC(=O)NC2CCN(Cc3ccccc3)CC2)cc1	89.8	8.91	46.2%		
CN(C)C(=O)Oc1cccc(CC(=O)NC2CCN(Cc3ccccc3)CC2)c1	82.1	21.9	50.5%	Active	Active
O=C(Cc1ccc(O)cc1)N1CCN(Cc2ccccc2)CC1	45.3		inactive		
CCCCNC(=O)Oc1ccc(CC(=O)N2CCN(Cc3ccccc3)CC2)cc1	83.1	16.6	inactive		
CCNC(=O)Oc1cccc(CC(=O)NC2CCN(Cc3ccccc3)CC2)c1	68.6	37.2	28.5%		
CN(C)C(=O)Oc1ccc(CC(=O)N2CCN(Cc3ccccc3)CC2)cc1	32.5		inactive		
CC(C)NC(=O)Oc1cccc(CC(=O)N2CCN(Cc3ccccc3)CC2)c1	77.7	35.5	inactive		
O=C(Cc1cccc(O)c1)N1CCN(Cc2ccccc2)CC1	31.5		inactive		
O=C(Cc1cccc(O)c1)NC1CCN(Cc2ccccc2)CC1	49.8		38.1%		
CCNC(=O)Oc1cccc(CC(=O)N2CCN(Cc3ccccc3)CC2)c1	62.5	55	inactive		
CC(C)NC(=O)Oc1ccc(CC(=O)NC2CCN(Cc3ccccc3)CC2)cc1	63.1	18.2	19.2%		
CN(C)C(=O)Oc1cccc(CC(=O)N2CCN(Cc3ccccc3)CC2)c1	79	23.4	inactive		
CCCCNC(=O)Oc1cccc(CC(=O)N2CCN(Cc3ccccc3)CC2)c1	92.7	10	inactive		
CCCNC(=O)Oc1ccc(CC(=O)NC2CCN(Cc3ccccc3)CC2)cc1	95.1	9.33	33.8%		
CC(C)NC(=O)Oc1ccc(CC(=O)N2CCN(Cc3ccccc3)CC2)cc1	72.2	52.5	inactive		
CCCNC(=O)Oc1ccc(CC(=O)N2CCN(Cc3ccccc3)CC2)cc1	88.3	32.4	inactive		
CCCCNC(=O)Oc1cccc(CC(=O)NC2CCN(Cc3ccccc3)CC2)c1	92	5.75	39.9%		
